Reference: ChEMBL document CHEMBL5338706, “Discovery of a potent and selective proteolysis targeting chimera (PROTAC) degrader of NSD3 histone methyltransferase” (Eur J Med Chem, 2022)
Active and inactive are the calls of the source. No cut-off for these calls is given here.

Tests used:
[1] = target: T1, Histone-lysine N-methyltransferase NSD3 (Homo sapiens) (UniProt Q9BZ95); assay: Induction of NSD3 degradation in human NCI-H1703 cells at 5 uM incubated for 72 hrs by Western blot analysis; type: cell-based
T1 sequence (whole entry): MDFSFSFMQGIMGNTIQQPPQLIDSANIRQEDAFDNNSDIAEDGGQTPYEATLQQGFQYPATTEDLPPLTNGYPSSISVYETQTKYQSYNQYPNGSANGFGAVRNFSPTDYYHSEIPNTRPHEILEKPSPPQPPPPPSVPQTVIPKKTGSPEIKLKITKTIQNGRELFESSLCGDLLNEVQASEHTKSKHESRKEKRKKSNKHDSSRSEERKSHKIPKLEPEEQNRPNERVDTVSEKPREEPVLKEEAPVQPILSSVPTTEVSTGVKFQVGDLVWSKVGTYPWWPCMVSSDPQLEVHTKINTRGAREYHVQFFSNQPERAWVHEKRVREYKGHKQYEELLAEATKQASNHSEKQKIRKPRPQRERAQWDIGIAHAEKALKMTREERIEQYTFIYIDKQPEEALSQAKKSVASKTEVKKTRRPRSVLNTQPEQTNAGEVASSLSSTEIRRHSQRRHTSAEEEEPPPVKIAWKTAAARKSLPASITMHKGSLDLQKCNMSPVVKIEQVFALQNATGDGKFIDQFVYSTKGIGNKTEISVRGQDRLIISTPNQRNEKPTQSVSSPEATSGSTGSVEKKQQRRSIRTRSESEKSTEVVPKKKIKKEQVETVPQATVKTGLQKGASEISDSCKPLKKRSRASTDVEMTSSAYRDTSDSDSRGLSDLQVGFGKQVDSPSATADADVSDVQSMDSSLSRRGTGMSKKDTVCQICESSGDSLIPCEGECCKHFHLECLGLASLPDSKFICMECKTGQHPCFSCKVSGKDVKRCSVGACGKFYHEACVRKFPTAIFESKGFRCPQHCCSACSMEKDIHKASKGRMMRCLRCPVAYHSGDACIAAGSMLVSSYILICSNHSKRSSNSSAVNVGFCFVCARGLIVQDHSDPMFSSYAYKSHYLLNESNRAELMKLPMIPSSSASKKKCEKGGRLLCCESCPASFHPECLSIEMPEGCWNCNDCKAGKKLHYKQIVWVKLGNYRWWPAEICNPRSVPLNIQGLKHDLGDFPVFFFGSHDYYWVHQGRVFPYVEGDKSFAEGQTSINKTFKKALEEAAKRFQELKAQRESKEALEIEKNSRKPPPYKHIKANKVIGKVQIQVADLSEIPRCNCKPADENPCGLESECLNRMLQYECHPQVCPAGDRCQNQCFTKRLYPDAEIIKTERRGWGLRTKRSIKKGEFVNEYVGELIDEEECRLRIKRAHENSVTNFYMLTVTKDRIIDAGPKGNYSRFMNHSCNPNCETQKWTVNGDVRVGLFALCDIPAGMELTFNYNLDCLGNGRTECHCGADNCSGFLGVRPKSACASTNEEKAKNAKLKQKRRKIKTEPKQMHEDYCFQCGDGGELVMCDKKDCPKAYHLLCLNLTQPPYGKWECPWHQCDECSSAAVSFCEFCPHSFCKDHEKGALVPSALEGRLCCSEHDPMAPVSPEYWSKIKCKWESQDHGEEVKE

NCI-H1703 = assay: Antiproliferative activity against human NCI-H1703 cells at upto 10 uM incubated for 6 days by CCK-8 method; type: functional, cell-based; conditions: time 6.0 day
A549 = assay: Antiproliferative activity against human A549 cells at upto 10 uM incubated for 3 days by CCK-8 method; type: functional, cell-based; conditions: time 3.0 day
[2] = target: T1, Histone-lysine N-methyltransferase NSD3 (Homo sapiens); assay: Induction of NSD3 degradation in human NCI-H1703 cells at upto 9 uM incubated for 72 hrs by Western blot analysis; type: cell-based

| SMILES | NSD3 degradation [1] [%] | also measured |
| --- | --- | --- |
| Cc1cc(CNCCCCCCCCCCCCCC(=O)N[C@H](C(=O)N2C[C@H](O)C[C@H]2C(=O)N[C@@H](C)c2ccc(-c3scnc3C)cc2)C(C)(C)C)cc(C)c1-c1ncn(C)c1-c1ccnc2cc(F)ccc12 | 45.2 | – |
| Cc1cc(CNCCOCCOCCOCCOCCC(=O)N[C@H](C(=O)N2C[C@H](O)C[C@H]2C(=O)N[C@@H](C)c2ccc(-c3scnc3C)cc2)C(C)(C)C)cc(C)c1-c1ncn(C)c1-c1ccnc2cc(F)ccc12 | 7.7 | – |
| Cc1cc(CNCCCCC(=O)N[C@H](C(=O)N2C[C@H](O)C[C@H]2C(=O)N[C@@H](C)c2ccc(-c3scnc3C)cc2)C(C)(C)C)cc(C)c1-c1ncn(C)c1-c1ccnc2cc(F)ccc12 | -4.2 | – |
| Cc1cc(CNCCCCCCCCCC(=O)N[C@H](C(=O)N2C[C@H](O)C[C@H]2C(=O)N[C@@H](C)c2ccc(-c3scnc3C)cc2)C(C)(C)C)cc(C)c1-c1ncn(C)c1-c1ccnc2cc(F)ccc12 | 1.2 | – |
| Cc1cc(CNCCCCCCC(=O)N[C@H](C(=O)N2C[C@H](O)C[C@H]2C(=O)N[C@@H](C)c2ccc(-c3scnc3C)cc2)C(C)(C)C)cc(C)c1-c1ncn(C)c1-c1ccnc2cc(F)ccc12 | 6.3 | – |
| Cc1cc(CNCCCCCCCC(=O)N[C@H](C(=O)N2C[C@H](O)C[C@H]2C(=O)N[C@@H](C)c2ccc(-c3scnc3C)cc2)C(C)(C)C)cc(C)c1-c1ncn(C)c1-c1ccnc2cc(F)ccc12 | -2.4 | – |
| Cc1cc(CNCCOCCOCCOCCC(=O)N[C@H](C(=O)N2C[C@H](O)C[C@H]2C(=O)N[C@@H](C)c2ccc(-c3scnc3C)cc2)C(C)(C)C)cc(C)c1-c1ncn(C)c1-c1ccnc2cc(F)ccc12 | 7.4 | – |
| Cc1cc(CNCCCCCCCCCNc2cccc3c2C(=O)N(C2CCC(=O)NC2=O)C3=O)cc(C)c1-c1ncn(C)c1-c1ccnc2cc(F)ccc12 (stereo not drawn) | 1.7 | – |
| Cc1cc(CNCCN2CCN(CCCC(=O)N[C@H](C(=O)N3C[C@H](O)C[C@H]3C(=O)N[C@@H](C)c3ccc(-c4scnc4C)cc3)C(C)(C)C)CC2)cc(C)c1-c1ncn(C)c1-c1ccnc2cc(F)ccc12 | 9.1 | – |
| Cc1cc(CNCCCCCCCCCCCC(=O)N[C@H](C(=O)N2C[C@H](O)C[C@H]2C(=O)N[C@@H](C)c2ccc(-c3scnc3C)cc2)C(C)(C)C)cc(C)c1-c1ncn(C)c1-c1ccnc2cc(F)ccc12 | 1.5 | – |
| Cc1cc(CNCCCCCC(=O)N[C@H](C(=O)N2C[C@H](O)C[C@H]2C(=O)N[C@@H](C)c2ccc(-c3scnc3C)cc2)C(C)(C)C)cc(C)c1-c1ncn(C)c1-c1ccnc2cc(F)ccc12 | 1.6 | – |
| Cc1cc(CNCCCN2CCN(CCCC(=O)N[C@H](C(=O)N3C[C@H](O)C[C@H]3C(=O)N[C@@H](C)c3ccc(-c4scnc4C)cc3)C(C)(C)C)CC2)cc(C)c1-c1ncn(C)c1-c1ccnc2cc(F)ccc12 | 13.8 | – |
| Cc1cc(CNCCCCN2CCN(CC(=O)N[C@H](C(=O)N3C[C@H](O)C[C@H]3C(=O)N[C@@H](C)c3ccc(-c4scnc4C)cc3)C(C)(C)C)CC2)cc(C)c1-c1ncn(C)c1-c1ccnc2cc(F)ccc12 | 11.1 | – |
| Cc1cc(CNCCCN2CCN(CCC(=O)N[C@H](C(=O)N3C[C@H](O)C[C@H]3C(=O)N[C@@H](C)c3ccc(-c4scnc4C)cc3)C(C)(C)C)CC2)cc(C)c1-c1ncn(C)c1-c1ccnc2cc(F)ccc12 | 25.8 | – |
| Cc1cc(CNCCOCCOCCC(=O)N[C@H](C(=O)N2C[C@H](O)C[C@H]2C(=O)N[C@@H](C)c2ccc(-c3scnc3C)cc2)C(C)(C)C)cc(C)c1-c1ncn(C)c1-c1ccnc2cc(F)ccc12 | -7.2 | – |
| Cc1cc(CN)cc(C)c1-c1ncn(C)c1-c1ccnc2cc(F)ccc12 | – | Activity (NCI-H1703): inactive; Activity (A549): inactive; Activity [2]: inactive |

Further lines, with some results ahead:

| NSD3 degradation [1] [%] | SMILES | also measured |
| --- | --- | --- |
| 37.6 | Cc1cc(CNCCCCCCN2CCN(CC(=O)N[C@H](C(=O)N3C[C@H](O)C[C@H]3C(=O)N[C@@H](C)c3ccc(-c4scnc4C)cc3)C(C)(C)C)CC2)cc(C)c1-c1ncn(C)c1-c1ccnc2cc(F)ccc12 | – |
| 0.7 | Cc1cc(CNCCCCCCCCC(=O)N[C@H](C(=O)N2C[C@H](O)C[C@H]2C(=O)N[C@@H](C)c2ccc(-c3scnc3C)cc2)C(C)(C)C)cc(C)c1-c1ncn(C)c1-c1ccnc2cc(F)ccc12 | – |
| 33.1 | Cc1cc(CNCCCCCCCCCCCCCCC(=O)N[C@H](C(=O)N2C[C@H](O)C[C@H]2C(=O)N[C@@H](C)c2ccc(-c3scnc3C)cc2)C(C)(C)C)cc(C)c1-c1ncn(C)c1-c1ccnc2cc(F)ccc12 | – |
| 1.5 | Cc1cc(CNCCCCCCCCCCCCNc2cccc3c2C(=O)N(C2CCC(=O)NC2=O)C3=O)cc(C)c1-c1ncn(C)c1-c1ccnc2cc(F)ccc12 (stereo not drawn) | – |
| 21 | Cc1cc(CNCCCCCCCCCCNc2cccc3c2C(=O)N(C2CCC(=O)NC2=O)C3=O)cc(C)c1-c1ncn(C)c1-c1ccnc2cc(F)ccc12 (stereo not drawn) | – |
| 10.7 | Cc1cc(CNCCOCCOCCOCC(=O)N[C@H](C(=O)N2C[C@H](O)C[C@H]2C(=O)N[C@@H](C)c2ccc(-c3scnc3C)cc2)C(C)(C)C)cc(C)c1-c1ncn(C)c1-c1ccnc2cc(F)ccc12 | – |
| 53.5 | Cc1cc(CNCCCCCN2CCN(CC(=O)N[C@H](C(=O)N3C[C@H](O)C[C@H]3C(=O)N[C@@H](C)c3ccc(-c4scnc4C)cc3)C(C)(C)C)CC2)cc(C)c1-c1ncn(C)c1-c1ccnc2cc(F)ccc12 | – |
| 16.4 | Cc1cc(CNCCCCCCCCCCCCCCCC(=O)N[C@H](C(=O)N2C[C@H](O)C[C@H]2C(=O)N[C@@H](C)c2ccc(-c3scnc3C)cc2)C(C)(C)C)cc(C)c1-c1ncn(C)c1-c1ccnc2cc(F)ccc12 | – |
| 38 | Cc1cc(CNCCCCCCCCCCCCC(=O)N[C@H](C(=O)N2C[C@H](O)C[C@H]2C(=O)N[C@@H](C)c2ccc(-c3scnc3C)cc2)C(C)(C)C)cc(C)c1-c1ncn(C)c1-c1ccnc2cc(F)ccc12 | – |
| 15.6 | Cc1cc(CNCCCCCCCCCCCNc2cccc3c2C(=O)N(C2CCC(=O)NC2=O)C3=O)cc(C)c1-c1ncn(C)c1-c1ccnc2cc(F)ccc12 (stereo not drawn) | – |
